From patent US11492361B2, “Compounds useful in HIV therapy” (GlaxoSmithKline Intellectual Property Development Limited, priority 2018, dated 2022)
Counter-ions that a name gives are not always drawn.

Test system: Jurkat HIV-luciferase clones
Test: Jurkat latency reversal assay
Type: cell-based
Conditions: Homo sapiens, Jurkat, 48 h
Experimental: Jurkat HIV-luciferase clones were maintained in RPMI medium 1640 (Gibco by Life Technologies) containing 10% (vol/vol) fetal bovine serum (SAFC/Sigma-Aldrich) and 25 units/mL penicillin, 25 units/mL streptomycin (Gibco by Life Technologies), and were split 1:4 every 3 to 4 days to maintain a cell density of ˜0.3 to 1 million cells/mL. The Jurkat clones were maintained with the addition of 500 nM EFV in the medium. Three Jurkat cell clones (C16, I15, and N6), each harboring one or two integrated HIV proviruses expressing the luciferase reporter gene, were added at equal amounts for a total of 5,000 cells per well to 384-well plates containing compound titrations. Dose-response testing was performed on compounds dissolved in dimethyl sulfoxide (DMSO, Fisher Scientific, Merelbeke, Belgium) dispensed in duplicate serial 3-fold, 14-point titrations using a D300e Digital Droplet Dispenser (Hewlett-Packard) to give final assay concentrations of 10 μM to 2.1 pM in 50 μL of medium at 0.5% DMSO (vol/vol) final concentration. Cells and compound were incubated at 37° C. for 48 hours, unless otherwise indicated, followed by the addition of 20 μL of Steady-Glo® Luciferase (Promega). Luminescence resulting from the induction of the virally expressed luciferase was measured using an EnVision 2102 Multilabel Plate Reader (Perkin Elmer). Dose-response relationships were analyzed with GraphPad PRISM 6 using a four-parameter logistic regression model to calculate the concentration of compound that gives half-maximal response (EC50) and the maximal percent activation compared to the vehicle control.

SMILES	EC50 [nM]
CN[C@@H](C)C(=O)N[C@H]1CCS[C@H]2CC(C)(C)[C@@H](C(=O)N[C@H](COCCCCOC[C@@H](NC(=O)[C@H]3N4C(=O)[C@@H](NC(=O)[C@H](C)NC)CCS[C@H]4CC3(C)C)c3ccccc3)c3ccccc3)N2C1=O [compound 36, (4S,4′S,7S,7′S,9aS,9a′S)-N,N′-((1S,1′S)-(butane-1,4-diylbis(oxy))bis(1-phenylethane-2,1-diyl))bis(8,8-dimethyl-4-((S)-2-(methylamino)propanamido)-5-oxooctahydropyrrolo[2,1-b][1,3]thiazepine-7-carboxamide) dihydrochloride]	9.5
CN[C@@H](C)C(=O)N[C@H]1CCS[C@H]2CC(C)(C)[C@@H](C(=O)N[C@H](C(=O)NCc3ccc(CNC(=O)[C@@H](NC(=O)[C@H]4N5C(=O)[C@@H](NC(=O)[C@H](C)NC)CCS[C@H]5CC4(C)C)c4ccccc4)cc3)c3ccccc3)N2C1=O [compound 24, (4S,4′S,7S,7′S,9aS,9a′S)-N,N′-((1S,1′S)-((1,4-phenylenebis(methylene))bis(azanediyl))bis(2-oxo-1-phenylethane-2,1-diyl))bis(8,8-dimethyl-4-((S)-2-(methylamino)propanamido)-5-oxooctahydropyrrolo[2,1-b][1,3]thiazepine-7-carboxamide)]	47.9
CN[C@@H](C)C(=S)N[C@H]1CCS[C@H]2CC(C)(C)[C@@H](C(=O)N[C@H](C(=O)N3CCN(C(=O)[C@@H](NC(=O)[C@H]4N5C(=O)[C@@H](NC(=S)[C@H](C)NC)CCS[C@H]5CC4(C)C)c4ccccc4)CC3)c3ccccc3)N2C1=O [compound 27, (4S,4′S,7S,7′S,9aS,9a′S)-N,N′-((1S,1′S)-piperazine-1,4-diylbis(2-oxo-1-phenylethane-2,1-diyl))bis(8,8-dimethyl-4-((S)-2-(methylamino)propanethioamido)-5-oxooctahydropyrrolo[2,1-b][1,3]thiazepine-7-carboxamide) dihydrochloride]	52.2
CN[C@@H](C)C(=O)N[C@H]1CCS[C@H]2CC(C)(C)[C@@H](C(=O)Nc3ccc(Cc4ccc(NC(=O)[C@H]5N6C(=O)[C@@H](NC(=O)[C@H](C)NC)CCS[C@H]6CC5(C)C)cc4)cc3)N2C1=O [compound 1, (4S,4′S,7S,7′S,9aS,9a′S)-N,N′-(methylenebis(4,1-phenylene))bis(8,8-dimethyl-4-((S)-2-(methylamino)propanamido)-5-oxooctahydropyrrolo[2,1-b][1,3]thiazepine-7-carboxamide)]	47
CN[C@@H](C)C(=S)N[C@H]1CCS[C@H]2CC(C)(C)[C@@H](C(=O)N[C@H]3c4ccccc4C[C@H]3OCc3ccc(CO[C@@H]4Cc5ccccc5[C@@H]4NC(=O)[C@H]4N5C(=O)[C@@H](NC(=S)[C@H](C)NC)CCS[C@H]5CC4(C)C)cc3)N2C1=O [compound 23, (4S,4′S,7S,7′S,9aS,9a′S)-N,N′-((1S,1′S,2R,2′R)-((1,4-phenylenebis(methylene))bis(oxy))bis(2,3-dihydro-1H-indene-2,1-diyl))bis(8,8-dimethyl-4-((S)-2-(methylamino)propanethioamido)-5-oxooctahydropyrrolo[2,1-b][1,3]thiazepine-7-carboxamide)]	55.5
CN[C@@H](C)C(=O)N[C@H]1CCS[C@H]2CC(C)(C)[C@@H](C(=O)N[C@H](COCCCCCCCCOC[C@@H](NC(=O)[C@H]3N4C(=O)[C@@H](NC(=O)[C@H](C)NC)CCS[C@H]4CC3(C)C)c3ccccc3)c3ccccc3)N2C1=O [compound 58, (4S,4′S,7S,7′S,9aS,9a′S)-N,N′-((1S,1′S)-(octane-1,8-diylbis(oxy))bis(1-phenylethane-2,1-diyl))bis(8,8-dimethyl-4-((S)-2-(methylamino)propanamido)-5-oxooctahydropyrrolo[2,1-b][1,3]thiazepine-7-carboxamide) dihydrochloride]	4.5
CN[C@@H](C)C(=O)N[C@H]1CCS[C@H]2CC(C)(C)[C@@H](C(=O)N[C@H]3c4ccccc4C[C@H]3OCCCCCCCCO[C@@H]3Cc4ccccc4[C@@H]3NC(=O)[C@H]3N4C(=O)[C@@H](NC(=O)[C@H](C)NC)CCS[C@H]4CC3(C)C)N2C1=O [compound 63, (4S,4′S,7S,7′S,9aS,9a′S)-N,N′-((1S,1′S,2R,2′R)-(octane-1,8-diylbis(oxy))bis(2,3-dihydro-1H-indene-2,1-diyl))bis(8,8-dimethyl-4-((S)-2-(methylamino)propanamido)-5-oxooctahydropyrrolo[2,1-b][1,3]thiazepine-7-carboxamide) dihydrochloride]	11.6
CN[C@@H](C)C(=S)N[C@H]1CCS[C@H]2CC(C)(C)[C@@H](C(=O)N[C@H]3c4ccccc4C[C@H]3C(=O)NCc3ccc(CNC(=O)[C@@H]4Cc5ccccc5[C@@H]4NC(=O)[C@H]4N5C(=O)[C@@H](NC(=S)[C@H](C)NC)CCS[C@H]5CC4(C)C)cc3)N2C1=O [compound 44, (4S,7S,9aS)-N-[(1R,2R)-2-({[4-({[(1R,2R)-1-[(4S,7S,9aS)-8,8-dimethyl-4-[(2S)-2-(methylamino)propanethioamido]-5-oxo-octahydropyrrolo[2,1-b][1,3]thiazepine-7-amido]-2,3-dihydro-1H-inden-2-yl]formamido}methyl)phenyl]methyl}carbamoyl)-2,3-dihydro-1H-inden-1-yl]-8,8-dimethyl-4-[(2S)-2-(methylamino)propanethioamido]-5-oxo-octahydropyrrolo[2,1-b][1,3]thiazepine-7-carboxamide]	20.4
CN[C@@H](C)C(=S)N[C@H]1CCS[C@H]2CC(C)(C)[C@@H](C(=O)N[C@H]3c4ccccc4C[C@H]3C(=O)N3CCN(C(=O)[C@@H]4Cc5ccccc5[C@@H]4NC(=O)[C@H]4N5C(=O)[C@@H](NC(=S)[C@H](C)NC)CCS[C@H]5CC4(C)C)CC3)N2C1=O [compound 47, (4S,7S,9aS)-N-[(1R,2R)-2-{4-[(1R,2R)-1-[(4S,7S,9aS)-8,8-dimethyl-4-[(2S)-2-(methylamino)propanethioamido]-5-oxo-octahydropyrrolo[2,1-b][1,3]thiazepine-7-amido]-2,3-dihydro-1H-indene-2-carbonyl]piperazine-1-carbonyl}-2,3-dihydro-1H-inden-1-yl]-8,8-dimethyl-4-[(2S)-2-(methylamino)propanethioamido]-5-oxo-octahydropyrrolo[2,1-b][1,3]thiazepine-7-carboxamide]	1.2
CN[C@@H](C)C(=S)N[C@H]1CCS[C@H]2CC(C)(C)[C@@H](C(=O)N[C@H](COCCOCCOC[C@@H](NC(=O)[C@H]3N4C(=O)[C@@H](NC(=S)[C@H](C)NC)CCS[C@H]4CC3(C)C)c3ccccc3)c3ccccc3)N2C1=O [compound 39, (4S,4′S,7S,7′S,9aS,9a′S)-N,N′-((1S,1′S)-((oxybis(ethane-2,1-diyl))bis(oxy))bis(1-phenylethane-2,1-diyl))bis(8,8-dimethyl-4-((S)-2-(methylamino)propanethioamido)-5-oxooctahydropyrrolo[2,1-b][1,3]thiazepine-7-carboxamide) dihydrochloride]	51.8
CN[C@@H](C)C(=O)N[C@H]1CCS[C@H]2CC(C)(C)[C@@H](C(=O)N[C@H](C(=O)NCC#CC#CCNC(=O)[C@@H](NC(=O)[C@H]3N4C(=O)[C@@H](NC(=O)[C@H](C)NC)CCS[C@H]4CC3(C)C)c3ccccc3)c3ccccc3)N2C1=O [compound 30, (4S,4′S,7S,7′S,9aS,9a′S)-N,N′-((1S,1′S)-(hexa-2,4-diyne-1,6-diylbis(azanediyl))bis(2-oxo-1-phenylethane-2,1-diyl))bis(8,8-dimethyl-4-((S)-2-(methylamino)propanamido)-5-oxooctahydropyrrolo[2,1-b][1,3]thiazepine-7-carboxamide) dihydrochloride]	65.4
CN[C@@H](C)C(=O)NC1CCS[C@H]2CC(C)(C)[C@@H](C(=O)N[C@H]3c4ccccc4CC[C@H]3C(=O)NCc3ccc(CNC(=O)[C@@H]4CCc5ccccc5C4NC(=O)[C@H]4N5C(=O)[C@@H](NC(=O)[C@H](C)NC)CCS[C@H]5CC4(C)C)cc3)N2C1=O (stereo in doubt) [compound 9, (4S,4′S,7S,7′S,9aS,9a′S)-N,N′-((1R,1′R,2R,2′R)-(((1,4-phenylenebis(methylene))bis(azanediyl))bis(carbonyl))bis(1,2,3,4-tetrahydronaphthalene-2,1-diyl))bis(8,8-dimethyl-4-((S)-2-(methylamino)propanamido)-5-oxooctahydropyrrolo[2,1-b][1,3]thiazepine-7-carboxamide) dihydrochloride]	90.3
CN[C@@H](C)C(=O)N[C@H]1CCS[C@H]2CC(C)(C)[C@@H](C(=O)N[C@H]3c4ccccc4C[C@H]3OCCCCCCCCCCO[C@@H]3Cc4ccccc4[C@@H]3NC(=O)[C@H]3N4C(=O)[C@@H](NC(=O)[C@H](C)NC)CCS[C@H]4CC3(C)C)N2C1=O [compound 57, (4S,4′S,7S,7′S,9aS,9a′S)-N,N′-((1S,1′S,2R,2′R)-(decane-1,10-diylbis(oxy))bis(2,3-dihydro-1H-indene-2,1-diyl))bis(8,8-dimethyl-4-((S)-2-(methylamino)propanamido)-5-oxooctahydropyrrolo[2,1-b][1,3]thiazepine-7-carboxamide) dihydrochloride]	8.5
